{"source": "paper PMC9423655", "about": "“Huntington’s disease phenotypes are improved via mTORC1 modulation by small molecule therapy” (PLoS ONE, 2022)", "key": {"SesnTKO HEK293T cells": {"tested_on": "SesnTKO HEK293T cells", "assay": "mTORC1 activation (p70S6K1) in HEK293T cells null for all three Sestrin isoforms", "type": "cell-based", "conditions": "leucine-starved 50 minutes, treatment 10 minutes", "description": "All cell lines were cultured in DMEM (Corning, #MT10013CV) supplemented with 10% heat-inactivated FBS (Gibco, #16140–071). All cell lines were maintained at 37°C and 5% CO2. For amino acid starvation, cells were rinsed once with and incubated Amino acid-free RPMI (US Biologicals, #R8999-04A) supplemented with 10% dialyzed FBS (Gibco, #26400044) for 50 min followed by treatment with NV-5297, leucine, or vehicle for 10 minutes. For leucine starvation, cells were rinsed once with and incubated in leucine-free DMEM (AthenaES, #0420) supplemented with 10% dialyzed FBS (Gibco, #26400044) for 50 minuted followed by treatment with NV-5297, leucine, or vehicle for 10 minutes.\nTo ascertain if Sestrins and the GATOR pathway are required for NV-5297 activity, we tested mTORC1 activation in cells null for either all three Sestrin isoforms [SesnTKO] or for the GATOR1 component Npr13 [Npr13KO] [44]. […]\n(A) Activation of the mTORC1 pathway by NV-5297. […] Representative immunoblots of ^T389pS6K1 and quantification of the normalized level of ^T389pS6K1 from 8 independent experiments (F) show TORC1 activity in unedited HEK-293T cells, HEK-293T cells deficient for Sestrin 1 (Sesn1), 2 (Sesn2) and 3 (Sesn3) (D) or HEK-293T cells deficient for the GATOR1 component Nprl3 (E) after 50 minutes leucine starvation followed by the addition of vehicle, NV-5297 or leucine for 10 minutes. […]"}, "[1]": {"tested_on": "mTORC1 pathway in striatum", "assay": "Chronic 6-week treatment: striatum immunoblots", "type": "in vivo, N171-82Q mice", "text": "Animals were sacrificed by live decapitation one hour after the last oral dosing. Whole hearts were excised, blot-dried and weighed on an analytical balance. The heart was bisected transversely and the apical halves was preserved for cardiomyocyte and fibrosis staining. Left tibias were isolated and measured with an electronic caliper. The brain left hemisphere was preserved for MSN size measurement. The brain right hemisphere was microdissected and the medial pre-frontal cortex, striatum, cortex, hippocampus and cerebellum were collected.\n(§1) Specific regions of the brain and heart were homogenized using a Next Advance Bullet Blender Storm in Lysis Buffer (Cell lysis buffer: 1% Triton X-100, 50 mM HEPES pH 7.4, 100 mM sodium chloride, 2 mM EDTA, 10 mM Beta-glycerophosphate, 10 mM Sodium pyrophosphate, and 1 protease inhibitor) at 4°C. Lysates were cleared by centrifugation at 13,200 rpm at 4°C for 10 minutes. Equal amounts of total protein from each sample were denatured and, resolved by SDS-PAGE. Membranes were imaged using the LI-COR imaging system. Proteins levels are normalized to tubulin, actin or GAPDH levels and further normalized to vehicle treated mice for each tissue.\nFig 3 Activation of the mTORC1 pathway in the striatum following daily oral dosing of NV-5297. (A) Representative immunoblots of the striatum for normalized phosphorylated S6 [^S240/244pS6], S6, phosphorylated Akt [^S437pAkt], Akt, phosphorylated mTOR [^S2448pmTOR], mTOR, DARPP-32, phosphorylated 4E-BP1 [^Thr37/46p4E-BP1], 4E-BP1 and Actin from homogenized striatum isolated from N171-82Q males after 6 weeks of daily oral dosing of NV-5297 (160 mg/kg) or vehicle [Veh]. (B) Quantification of the immunoblots from homogenized striatum isolated 1 hour after the final oral dosing with NV-5297 (160 mg/kg; n = 14) normalized to loading control levels and further normalized to vehicle treated mice (n = 15). A significant Spearman correlation is present between pS6/S6 and DARPP32 levels. Data are presented as mean ± SEM. *P ≤ 0.05, ***P ≤ 0.001, ****P ≤ 0.0001 (one-tailed unpaired Student’s t-test [pmTOR/mTOR, DARPP-32], with a Welch’s correction [pS6/S6, p4E-BP1/4E-BP1], Mann-Whitney test [pAkt/Akt]."}, "mTORC1 pathway in heart": {"tested_on": "mTORC1 pathway in heart", "assay": "Chronic 6-week treatment: heart immunoblots", "type": "in vivo", "conditions": "N171-82Q mice, 160 mg/kg daily 6 weeks, 1 hour after dosing", "description": "as §1\nFig 5 Oral dosing with NV-5297 over 6 weeks improves cardiac function and activates the mTORC1 pathway. (A) Representative M-mode echocardiograms from transthoracic echocardiography at 6 weeks and 12 weeks of vehicle and NV-5297 treated N171-82Q males. (B) Heart weight corrected for the animal’s standard length (tibia length) at 12 weeks. (C) Left ventricular measurements obtained by transthoracic echocardiography by deducting the end treatment (12 weeks) from the baseline (6 weeks) measurements. Variation in cardiac output [CO], ejection fraction [EF], fractional shortening [FS], stroke volume (SV) and Heart rate [HR]. (D) Representative immunoblots for normalized phosphorylated S6 (^S240/244pS6), S6, phosphorylated Akt (^S437pAkt), Akt, phosphorylated mTOR (^S2448pmTOR), mTOR, phosphorylated 4E-BP1 (^Thr37/46p4E-BP1), 4E-BP1 and Actin in homogenized heart. (E) Quantification of the immunoblots for homogenized heart isolated 1 hour after oral dosing with NV-5297 (160 mg/kg; n = 14) normalized to loading control levels and further normalized to vehicle (Veh) treated mice (n = 15). Data are presented as mean ± SEM. *P ≤ 0.05, **P ≤ 0.01, ***P ≤ 0.001 (unpaired Kruskal-Wallis test with Dunn’s multiple comparison test [B], unpaired one-tailed Student’s t-tests [C, E pmTOR] with a Welch’s correction [pS6/S6, pmTOR/mTOR] or a Mann-Whitney test [pAkt/Akt, p4E-BP1/4E-BP1])."}, "[2]": {"conditions": "N171-82Q mice, 160 mg/kg daily 6 weeks"}, "[3]": {"conditions": "N171-82Q mice, 160 mg/kg daily 6 weeks, 1 hour after final dose"}}}
{"smiles": "CC(C)(C[C@H](N)C(=O)O)C(F)(F)F", "note": "[NV-5297, (S)-2-amino-5,5,5-trifluoro-4,4-dimethylpentanoic acid]", "values": [{"measurement": "p70S6K1 levels", "setting": "SesnTKO HEK293T cells", "result": "remained unchanged"}, {"measurement": "striatal p4E-BP1/4E-BP1", "setting": "[1]; [2]", "result": "unchanged"}, {"measurement": "striatal pAkt/Akt", "setting": "[1]; [2]", "result": "unchanged"}, {"measurement": "striatal pmTOR/mTOR", "setting": "[1]; [2]", "result": "unchanged"}, {"measurement": "striatal DARPP-32", "setting": "[1]; [3]", "result": "significantly elevated"}, {"measurement": "striatal pS6", "setting": "[1]; [3]", "result": "significantly elevated"}, {"measurement": "duration of mTORC1 pathway activation", "setting": "[1]; NV-5297 daily treatment, response to reviewers", "result": "~ 3 hours per day"}, {"measurement": "heart p4E-BP1 level versus controls", "setting": "mTORC1 pathway in heart", "result": "elevated"}, {"measurement": "heart pS6 level versus controls", "setting": "mTORC1 pathway in heart", "result": "elevated"}, {"measurement": "heart pmTOR level versus controls", "setting": "mTORC1 pathway in heart", "result": "elevated"}]}
